# Source: article PMC9697831 (Journal of Fungi, 2022)
# pKd: −log10 of the molar value. Positions of bridges follow the written chain, without caps; N, C: chain ends. No end group written: not given here.
# Tests used:
# hKv1.3 [1] = target: T1, hKv1.3 (Homo sapiens, UniProt P22001); test: Whole-cell patch clamp of hKv1.3 currents in activated human T lymphocytes; assay type: cell-based; conditions: for time needed to reach equilibrium (steady-state) block of hKv1.3: 1 nM; for Hill coefficient (H): Hill equation fit of concentration-response on hKv1.3, n = 3-5; for Activity on hKv1.3: RP-HPLC fraction of His-tagged recombinant peptide, patch clamp; for recovery from block on perfusion with toxin-free solution: washout
# T1 construct: endogenous in cells
# Experimental: Human venous blood from anonymized healthy donors was obtained from a blood bank. Peripheral blood mononuclear cells (PBMCs) were isolated by density gradient centrifugation using Histopaque1077 (Cat. No 10771). The obtained cells were resuspended in RPMI 1640 medium containing 10% fetal calf serum, 100 μg/mL penicillin, 100 μg/mL streptomycin, and […], seeded at a density of 5 × 10^5 cells per ml in a 24-well culture plate and grown in a 5% CO2 incubator at 37 °C for 2–5 days. Phytohemagglutinin A (Cat. No. L1668) was added to the medium at concentrations of 5, 7, and 10 μg/mL to increase the voltage-gated potassium ion channel expression.
# Electrophysiological measurements were performed by using the patch clamp technique in a whole-cell configuration on voltage-clamped cells using the Axon Multiclamp 700B amplifier and the Axon Digidata1440 digitizer; the Clampex 10.7 software was used for data acquisition (all from Molecular Devices, Sunnyvale, CA, USA). Micropipettes were pulled from GC150F-15 borosilicate capillaries (Harvard Apparatus Kent, Edenbridge, UK), resulting in 3–4 MΩ resistance in the bath solution. The extracellular solution (bath solution) contained 145 mM NaCl, 5 mM KCl, 1 mM MgCl2, 2.5 mM CaCl2, 5.5 mM glucose, and 10 mM HEPES, with a pH of 7.35 and an osmolarity between 302 and 308 mOsM/L. The pipette filling solution (intracellular) consisted of 140 mM KF, 2 mM MgCl2, 1 mM CaCl2, 10 mM HEPES, and 11 mM EGTA, with a pH of 7.22 and an osmolarity of 295 mOsM/L. When the toxins were dissolved in bath solution at different molar concentrations, they were supplemented with 0.1 mg/mL bovine serum albumin (BSA). To record hKv1.3 in activated human T lymphocytes (Kv1.3 overexpression), 15 ms-long depolarizing pulses were applied at +50 mV from a holding potential of −120 mV every 15 s. Current traces were low-pass filtered by the analog four-pole Bessel filters of the amplifiers, and the sampling frequency was set at 20 kHz, which was at least twice that of the filter cutoff frequency. The control and test solutions were perfused into the cell through a gravity flow perfusion system. The excess bath solution was constantly removed with vacuum suction.
# The effect of the toxin at a given molar concentration was calculated as the remaining current fraction (RCF = I/I0, where I0 is the peak current in the absence of the toxin and I is the peak current at the equilibrium block at a given toxin concentration). The data points on the dose-response curves represent the mean of 3–5 individual measurements. The data points were fitted with the Hill equation, RCF=KdH/KdH+toxin^H where [toxin] is the concentration of the toxin and H is the Hill coefficient. The best fit curve gave the Kd value of a given toxin.
# Kv1.3 channel = conditions: ref 11 (charybdotoxin), 12 (noxiustoxin), 13 (Vm24), 14 (ShK), 15 (margatoxin), 16 (HsTx1); cited from earlier work
# Text: Voltage-gated potassium (Kv) channels regulate the selective efflux of K^+ through the plasma membrane, thereby shaping the action potentials in excitable cells and regulating many other cellular functions in non-excitable cells. The Kv channel family includes 12 subfamilies (Kv1-Kv12). The Kv1 (Shaker) subfamily consists of eight voltage-gated potassium channels belonging to the delayed rectifier class (Kv1.1–Kv1.8). Of this Kv subfamily, the Kv1.3 channel is mainly expressed in neurons and immune cells, and therefore, channel inhibition in these cells may be useful in the t ...
# hKv1.3 [2] = target: T1, hKv1.3; conditions: 100 nM, hKv1.3 expressed in CHO cells; cited from earlier work
# Experimental: As mentioned earlier, the Kd values of Tag-Vm24 and Untag-AnTx were very similar to those reported for the native toxins. […] The Kd value of the native Ts6 was determined using Xenopus oocytes expressing rat Kv1.3 (rKv1.3). […] Differences in the type of cell expression system as well as the use of a channel from di ...
# rat Kv1.3 (rKv1.3) = conditions: rKv1.3 expressed in oocytes; cited from earlier work
# Text: Anuroctoxin (AnTx, α-KTx 6.12) is a small peptide consisting of 35 amino acids (4109 Da). […] Ts6 (α-KTx 12.1) consists of 40 amino acids with a molecular mass of 4506 Da. Ts6 was isolated from the venom of the scorpion Tytyus serrulatus and inhibits hKv1. ... || In the preliminary experiments to evaluate the biological activity of the recombinant toxins, peptide concentrations slightly higher than the reported Kd values for the native toxins were used.
# T1 sequence (P22001 whole entry, the tested form may be a part): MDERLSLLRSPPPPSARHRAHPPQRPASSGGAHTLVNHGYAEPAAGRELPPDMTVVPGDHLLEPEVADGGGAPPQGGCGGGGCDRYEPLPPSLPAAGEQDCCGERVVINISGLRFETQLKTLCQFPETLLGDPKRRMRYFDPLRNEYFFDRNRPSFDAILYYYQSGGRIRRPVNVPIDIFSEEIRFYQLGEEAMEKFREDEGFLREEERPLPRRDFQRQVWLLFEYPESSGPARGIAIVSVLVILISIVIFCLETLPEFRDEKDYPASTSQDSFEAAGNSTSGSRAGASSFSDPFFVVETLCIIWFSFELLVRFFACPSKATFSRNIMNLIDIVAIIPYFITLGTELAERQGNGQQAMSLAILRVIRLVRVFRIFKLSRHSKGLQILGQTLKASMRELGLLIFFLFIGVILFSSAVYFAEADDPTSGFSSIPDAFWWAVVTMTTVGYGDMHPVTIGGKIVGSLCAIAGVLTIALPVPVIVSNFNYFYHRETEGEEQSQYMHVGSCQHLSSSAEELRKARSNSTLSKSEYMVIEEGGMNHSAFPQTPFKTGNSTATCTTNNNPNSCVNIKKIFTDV
Compound,Hill coefficient (H) (hKv1.3 [1]),Activity on hKv1.3 (hKv1.3 [1]),recovery from block on perfusion with toxin-free solution (hKv1.3 [1]),concentration range in which the toxin blocks the Kv1.3 channel (Kv1.3 channel),other results
CSCC[C@@H]1NC(=O)[C@@H]2CSSC[C@H](NC(=O)[C@H](CCC(=O)O)NC(=O)[C@H](CCCCN)NC(=O)[C@H](CCC(N)=O)NC(=O)[C@H](CCCCN)NC(=O)[C@H](CC(=O)O)NC(=O)[C@H](CC(=O)O)NC(=O)[C@H](CC(=O)O)NC(=O)[C@H](CC(=O)O)NC(=O)[C@H](Cc3c[nH]cn3)NC(=O)[C@H](Cc3c[nH]cn3)NC(=O)[C@H](Cc3c[nH]cn3)NC(=O)[C@H](Cc3c[nH]cn3)NC(=O)[C@H](Cc3c[nH]cn3)NC(=O)[C@H](Cc3c[nH]cn3)NC(=O)[C@H](CCC(N)=O)NC(=O)[C@H](CC(C)C)NC(=O)[C@H](Cc3ccccc3)NC(=O)[C@@H](N)CCC(=O)O)C(=O)N[C@@H]([C@@H](C)O)C(=O)NCC(=O)N3CCC[C@H]3C(=O)N[C@@H](CCC(N)=O)C(=O)N[C@@H](Cc3c[nH]cn3)C(=O)N[C@H]3CSSC[C@H](NC(=O)[C@H](CCCCN)NC(=O)[C@H](CCCNC(=N)N)NC(=O)[C@H](CC(N)=O)NC1=O)C(=O)N[C@@H](CCCCN)C(=O)N[C@H]1CSSC[C@H](NC(=O)[C@H](Cc4ccccc4)NC(=O)[C@H](CC(N)=O)NC(=O)[C@H]([C@@H](C)O)NC3=O)C(=O)N[C@@H](CCCNC(=N)N)C(=O)N[C@@H](CCCCN)C(=O)N[C@@H](CC(N)=O)C(=O)N[C@@H](CCCCN)C(=O)N[C@@H](CSSC[C@@H](C(=O)N[C@@H](CCCCN)C(=O)O)NC(=O)[C@H](CC(N)=O)NC(=O)[C@H](Cc3ccccc3)NC1=O)C(=O)N[C@@H]([C@@H](C)O)C(=O)N[C@@H](Cc1c[nH]cn1)C(=O)NCC(=O)N[C@@H](CCCCN)C(=O)N2 [Tag-AnTx],0.91,Positive,full recovery,,time needed to reach equilibrium (steady-state) block of hKv1.3 (hKv1.3 [1]): ~ 2.5 min
CSCC[C@@H]1NC(=O)[C@@H]2CSSC[C@H](NC(=O)[C@H](CCC(=O)O)NC(=O)[C@H](CCCCN)NC(=O)[C@@H](N)CCC(N)=O)C(=O)N[C@@H]([C@@H](C)O)C(=O)NCC(=O)N3CCC[C@H]3C(=O)N[C@@H](CCC(N)=O)C(=O)N[C@@H](Cc3c[nH]cn3)C(=O)N[C@H]3CSSC[C@H](NC(=O)[C@H](CCCCN)NC(=O)[C@H](CCCNC(=N)N)NC(=O)[C@H](CC(N)=O)NC1=O)C(=O)N[C@@H](CCCCN)C(=O)N[C@H]1CSSC[C@H](NC(=O)[C@H](Cc4ccccc4)NC(=O)[C@H](CC(N)=O)NC(=O)[C@H]([C@@H](C)O)NC3=O)C(=O)N[C@@H](CCCNC(=N)N)C(=O)N[C@@H](CCCCN)C(=O)N[C@@H](CC(N)=O)C(=O)N[C@@H](CCCCN)C(=O)N[C@@H](CSSC[C@@H](C(=O)N[C@@H](CCCCN)C(=O)O)NC(=O)[C@H](CC(N)=O)NC(=O)[C@H](Cc3ccccc3)NC1=O)C(=O)N[C@@H]([C@@H](C)O)C(=O)N[C@@H](Cc1c[nH]cn1)C(=O)NCC(=O)N[C@@H](CCCCN)C(=O)N2 [Untag-AnTx],,,,,"pKd (hKv1.3 [1]; whole-cell patch clamp, activated human peripheral T lymphocytes, 15 ms pulses to +50 mV from -120 mV every 15 s, Hill equation fitted to remaining current fraction, mean ± SEM, n = 3-5, read-out: Kd for block of hKv1.3): 9.14"
"EFHHHHHHDDDDKWCSTCLDLACGASRECYDPCFKAFGRAHGKCMNNKCRCYT (disulfide 15-18, 23-44, 29-49, 33-51) [Tag-Ts6]",1.06,Positive,complete recovery,,"block of more than 50% of the Kv1.3 current (hKv1.3 [1]; 100 nM, 6x-His-tagged peptide): could not be replicated; time of onset of equilibrium block and complete recovery of peak current (hKv1.3 [1]; progressively increasing concentrations): a few seconds"
"EFLQHHHHHHIEGRAAAISCVGSPECPPKCRAQGCKNGKCMNRKCKCYYC (disulfide 20-40, 26-45, 30-47, 35-50) [Tag-Vm24]",0.92,Positive,not reversible,,time needed to achieve equilibrium block of hKv1.3 (hKv1.3 [1]; 10 pM): ~ 25 min; time needed to reach equilibrium (steady-state) block of hKv1.3 (hKv1.3 [1]): ~ 5 min
charybdotoxin,,,,nanomolar range,
"margatoxin (TIINVKCTSPKQCLPPCKAQFGQSAGAKCMNGKCKCYPH; UniProt P40755 1-39, looked up)",,,,picomolar range,
"maurotoxin (VSCTGSKDCYAPCRKQTGCPNAKCINKSCKCYGC; UniProt P80719 1-34, looked up)",,,,,sensitivity of hKv1.3 to the toxin (hKv1.3 [2]): almost insensitive; pKd (rat Kv1.3 (rKv1.3)): 6.74
"noxiustoxin: toxin that blocks the Kv1.3 channel (TIINVKCTSPKQCSKPCKELYGSSAGAKCMNGKCKCYNN; UniProt P08815 1-39, looked up)",,,,nanomolar range,
